Here are results for 16 compounds from US5463074A, “Imidazolyl or imidazoylalkyl substituted with a four or five membered nitrogen containing heterocyclic ring” (Schering Corporation, priority 1994, dated 1995).

Broadly, the Ki is the dissociation constant of the complex between target and ligand, obtained from inhibition or displacement. As a reminder, the inhibition is the share of the control response that was lost under treatment.

The target of one assay is T1, H3 receptor (Cavia porcellus, UniProt Q9JI35).
T1 construct: The source of the H3 receptors in this experiment was guinea pig brain; from tissue; host or cells: guinea pig brain membranes
T1 sequence (Q9JI35 whole entry): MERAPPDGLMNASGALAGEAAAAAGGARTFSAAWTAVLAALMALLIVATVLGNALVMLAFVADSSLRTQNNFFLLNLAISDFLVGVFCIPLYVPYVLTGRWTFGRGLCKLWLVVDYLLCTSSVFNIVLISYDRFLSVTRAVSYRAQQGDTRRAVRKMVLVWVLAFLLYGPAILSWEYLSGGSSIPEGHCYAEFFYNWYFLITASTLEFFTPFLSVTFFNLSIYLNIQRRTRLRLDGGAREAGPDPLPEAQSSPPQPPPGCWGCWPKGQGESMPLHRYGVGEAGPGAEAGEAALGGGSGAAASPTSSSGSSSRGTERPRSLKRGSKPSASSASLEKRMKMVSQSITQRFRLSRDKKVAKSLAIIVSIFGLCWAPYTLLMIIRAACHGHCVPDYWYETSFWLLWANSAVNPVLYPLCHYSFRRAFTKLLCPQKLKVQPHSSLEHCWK
Put plainly: H3 Receptor Binding Assay.
Conditions: not given
The arrangement: species or system guinea pig. On the procedure:
The source of the H3 receptors in this experiment was guinea pig brain. The animals used weighted 400-600 g. The tissue was homogenized using a Polytron in a solution of 50 mM Tris, pH 7.5. The final concentration of tissue in the homogenization buffer was 10% w/v. The homogeneates were centrifuged at 1000×g for 10 min. in order to remove clumps of tissue and debris. The resulting supernatants were then centrifuged at 50,000×g for 20 min. in order to sediment the membranes, which were next washed 3 times in homogenization buffer (50,000×g for 20 min. each). The membranes were frozen and stored at -70° C. until needed.
All compounds to be tested were dissolved in DMSO and then diluted into the binding buffer (50 mM Tris, pH 7.5) such that the final concentration was 2 μg/mL with 0.1% DMSO. Membranes were then added (400 μg of protein) to the reaction tubes. The reaction was started by the addition of 3 nM [^3 H]R-α-methylhistamine (8.8 CVmmol) or [^3 H]-N-methylhistamine (80 Cvmmol) and incubated at 30° for 30 min.
As for `CCCCC[C@@H]1CNC[C@@H]1c1c[nH]cn1` (relative stereo), the affinity, expressed as Ki, was 77 nM.

The assay is the same for the next values; noted with them: at a concentration of 2 μg/mL; guinea pig brain membranes; read-out: % inhibition (of specific binding of radioactive ligand).
In the case of `CC1(C)CNCC1c1c[nH]cn1` (stereo not shown), the inhibition at 2 µg/mL is 68%.

The same assay, now with this note: guinea pig brain membranes; [3H]R-α-methylhistamine or [3H]-N-methylhistamine, 30°, 30 min; read-out: H3 Binding Ki.
Regarding `CC[C@@H]1CNC[C@H]1c1c[nH]cn1` (relative stereo), the inhibition constant (Ki) turned out to be 150 nM.

With `c1nc(C2CCNC2)c[nH]1` (stereo not shown), the Ki is 3 nM.

As for `C[C@@H]1CNC[C@H]1c1cnc[nH]1` (relative stereo), the Ki was found to be 8 nM.

On to `CC1(c2c[nH]cn2)CCNC1` (stereo not shown), for which the Ki was 170 nM.

In the case of `c1nc(CC2CCCN2)c[nH]1` (stereo not shown), the inhibition constant (Ki) is 110 nM.

With `C[C@@H]1C[C@@H](c2c[nH]cn2)CN1` (relative stereo), the Ki was found to be 76 nM.

In the case of `C[C@@H]1NC[C@H]1c1c[nH]cn1` (relative stereo), the Ki was determined as 7 nM.

On to `CC1(C)NCCC1c1c[nH]cn1` (stereo not shown), for which the Ki was found to be 66 nM.

As for `CN1CCC(Cc2c[nH]cn2)C1` (stereo not shown), the inhibitory constant (Ki) is 3 nM.

For `C[C@@H]1NCC[C@H]1c1c[nH]cn1` (relative stereo), the Ki amounted to 6 nM.

As to `CCCCC[C@@H]1CNC[C@H]1c1c[nH]cn1` (relative stereo), the Ki stood at 450 nM.

`c1ccc(CC[C@@H]2NCC[C@@H]2c2c[nH]cn2)cc1` (relative stereo): the Ki is 600 nM.

The assay is the same for the next values; noted with them: read-out: % inhibition (of specific binding of radioactive ligand).
As for `c1ccc(C[C@@H]2NCC[C@H]2c2c[nH]cn2)cc1` (relative stereo), the inhibition at 2 µg/mL amounted to 7%.

The subject of the next assay is H3 receptors.
Assay: not given
The conditions noted are these: H3 receptors in rat brain; cited from earlier work.
As for `NCCc1c[nH]cn1` [histamine], the “maximum inhibition of release” value is reported as “approximately 60%”.
